According to US6140360A, “Antifungal agent” (TOA Gosei Co., Ltd., priority 1996, dated 2000):
≈ marks a conversion by molar mass, not a printed value. Read-outs that look alike come from different tables or passages of the source.

Assays:
[1] = system: Candida albicans; assay: in vitro antifungal activity (MIC); assay type: cell-based
Method: Using Candida albicans, Aspergillus niger, Aspergillus fumigatus, and Cryptococcus neoformans as test fungi, in vitro antifungal activities were determined to confirm the antifungal activities of cryptoporic acids A, B, and D. The test method and the results are shown below.
The fungal strains used for this test were standard strains provided by Teikyo University, Institute of Medical Mycology. Drug sensitivity was measured using Yeast Morphology Agar (Difco) as media.
The test fungi were spread over slant made of a potato dextrose agar medium (NissuiSeiyaku) and cultured at 30° C. for one day (Candida, Cryptococcus) or four days (Aspergillus niger, Aspergillus neoformans). After culturing, fungi on the slant were washed away with sterile physiological saline supplemented with 0.1% Tween 80. The solution was passed through a filter with 15 μm pores. The fungi were counted on a hemocytometer and adjusted to 10^5 CFU/ml to serve as an inoculation solution. A 0.02 ml portion of this solution was inoculated into Yeast Morphology Agar containing test agents by two-fold serial dilution and cultured at 30° C. for 1 or 4 days.
Antifungal effect was judged with naked eyes. Concentrations at which evident inhibition of growth was observed compared with control media containing no drug were taken as MIC values.
Candida albicans, Aspergillus niger, Aspergillus fumigatus, and Cryptococcus neoformans were used as test fungi. The test for in vitro antifungal activity was conducted in the same manner as in 1 above to confirm antifungal activity.
3. In vitro antifungal activities of cryptoporic acid derivatives represented by formula 3 and a commercially available antifungal agent, Diflucan, were tested using Candida albicans as test fungi in the same manner.

[2] = system: Aspergillus fumigatus; assay: in vitro antifungal activity (MIC); assay type: cell-based; conditions: Table 2, Yeast Morphology Agar, 30° C.
Method: Using Candida albicans, Aspergillus niger, Aspergillus fumigatus, and Cryptococcus neoformans as test fungi, in vitro antifungal activities were determined to confirm the antifungal activities of cryptoporic acids A, B, and D. The test method and the results are shown below. The fungal strains used for this test were standard strains provided by Teikyo University, Institute of Medical Mycology. Drug sensitivity was measured using Yeast Morphology Agar (Difco) as media. The test fungi were spread over slant made of a potato dextrose agar medium (NissuiSeiyaku) and cultured at 30° C. for one day (Candida, Cryptococcus) or four days (Aspergillus niger, Aspergillus neoformans). After culturing, fungi on the slant were washed away with sterile physiological saline supplemented with 0.1% Tween 80. The solution was passed through a filter with 15 μm pores. The fungi were counted on a hemocytometer and adjusted to 10^5 CFU/ml to serve as an inoculation solution. A 0.02 ml portion of this solution was inoculated into Yeast Morphology Agar containing test agents by two-fold serial dilution and cultured at 30° C. for 1 or 4 days. Antifungal effect was judged with naked eyes. Concentrations at which evident inhibition of growth was observed compared with control media containing no drug were taken as MIC values. […]

[3] = system: Candida albicans; assay: Infection-Treating Test, Candida albicans infected mice; assay type: in vivo, mice (ICR); conditions: oral in sesame oil, first dose 1 hour after i.v. inoculation (1.0×10^6 CFU/mouse), once a day, total seven days, survival, Weil method
Method: (§1) Candida albicans (1.0×10^6 CFU/mouse) or Aspergillus fumigatus (2.0×10^6 CFU/mouse) was suspended in physiological saline, and a 0.2 ml portion of each solution was injected into healthy grown mice (ICR, 4 week-old, female, 19-22 g, Nihon CLEA) via the caudal vein to establish infection. Cryptoporic acid H was dissolved in sesame oil in prescribed concentrations, and a 0.2 ml portion was orally administered per dose to the mice through a stomach probe. The first administration was conducted 1 hour after inoculation of fungi. Thereafter, administration was conducted six times (once a day every 24 hours; for a total of seven days). only the base (0.2 ml) was administered to the control group. Treatment effectiveness was evaluated with ED50 by using the Weil method from the survival rate of treated mice when all the control animals died.

[4] = system: Aspergillus fumigatus; assay: Infection-Treating Test, Aspergillus fumigatus infected mice; assay type: in vivo, mice (ICR); conditions: oral in sesame oil, first dose 1 hour after i.v. inoculation (2.0×10^6 CFU/mouse), once a day, total seven days, survival, Weil method
Method: as §1

[5] = Solubility; assay type: physicochemical; conditions: in methanol, acetone, and ethyl acetate
[6] = 24 h, Table 1, Yeast Morphology Agar, 30° C., 1 day, read-out: MIC (Candida albicans)

For C=C1CC[C@H]2C(C)(C)CCC[C@]2(C)[C@H]1COC(C(=O)OC)C(CC(=O)O)C(=O)OC (stereo partly drawn) [Cryptoporic acid A], which MIC [1, 6] is on record?
The MIC was 25 µg/mL (≈ 58.9 µM).

With C=C1CC[C@H]2[C@](C)(CO)CCC[C@]2(C)[C@H]1COC(C(=O)OC)C(CC(=O)O)C(=O)OC (stereo partly drawn) [Cryptoporic acid B] as the molecule, how does the MIC [1, 6] read?
Its MIC is 25 µg/mL (≈ 56.7 µM).

And the MIC [2]?
The MIC was 200 µg/mL (≈ 454 µM).

With C=C1CCC2C3(C)CCCC2(C)C1COC(C(=O)OC)C(CC(=O)O)C(=O)OCC1(C)CCCC2(C)C(COC(C(=O)OC)C(CC(=O)O)C(=O)OC3)C(=C)CCC12 (stereo not drawn) [Cryptoporic acid D] as the molecule, how does the MIC [1, 6] read?
The MIC was 100 µg/mL (≈ 122 µM).

For C=C1CC[C@H]2C(C)(C)CCC[C@]2(C)[C@H]1COC(C(=O)O)C(CC(=O)O)C(=O)O (stereo partly drawn) [Cryptoporic acid H], which ED50 [3] is on record?
Its ED50 is 0.32 mg/kg.

What about the ED50 [4] of the same molecule?
Its ED50 is 2 mg/kg.

With OC(Cn1cncn1)(Cn1cncn1)c1ccc(F)cc1F [Diflucan, reference compound] as the molecule, how does the MIC ([1]; TIMM1623) read?
The MIC was 25 µg/mL (≈ 81.6 µM).

For C=C1CC[C@H]2C(C)(C)CCC[C@]2(C)[C@H]1COC(C(=O)OC)C(CC(=O)O)C(=O)O[C@H]1CC(C)(C)[C@@H]2CC=C(C=O)[C@H](C=O)[C@@]2(C)C1 (stereo partly drawn) [TG 101], which Solubility [5] is on record?
The Solubility was “Easily soluble”.

For C=C1CC[C@H]2C(C)(C)CCC[C@]2(C)[C@H]1COC(C(=O)OC)C(CC(=O)O)C(=O)O[C@H]1CC(C)(C)[C@@H]2CC=C3COC(O)[C@@H]3[C@@]2(C)C1 (stereo partly drawn) [TG 103], which Solubility [5] is on record?
Its Solubility is “Easily soluble”.
